In publication PMC11058299, “Synthesis, molecular docking evaluation for LOX and COX-2 inhibition and determination of in-vivo analgesic potentials of aurone derivatives” (Heliyon, 2024):
Where two headings read alike, the source gives them in different places.

Assays:
[1] = test system: heat induced tail flicking latency; assay: Tail immersion test; type: in vivo; conditions: mice
Procedure: Group I: Control, Group II-XV: WE-1 to WE-7 (sample compounds) at dose of 10 mg/kg and 20 mg/kg and Group XVI: Standard. The control (Group I) was given normal saline. Group II-XV received 10 mg/kg and 20 mg/kg of test sample (WE-1 to WE-7).
(§1) The cut-off time was set at 25 s, and the time taken for the mice to flick their tails out of the water was recorded at 30, 60, 90, and 120-min intervals. An increase in the time of tail immersion was compared to the control group to determine the analgesic effect of the tested drugs. The percentage of inhibition was calculated at the time interval showing the highest effect.

[2] = test system: opioid receptors (tail flicking latency); assay: Assessment of opioid mechanism via tail immersion test with Naloxone; type: in vivo; conditions: mice; for Latency response 30 min: control 3.14 ± 0.31; for Latency response 60 min: control 3.17 ± 0.41; for Latency response 120 min: control 3.20 ± 0.29; for Latency response 90 min: control 3.31 ± 0.44
Procedure: as §1
To verify the involvement of the opioid mechanism, following the approach outlined in the published study. […] These derivatives were assessed for their potential opioid activity within the control, sample compounds and standard groups using the tail immersion test.

5-LOX = target: T1, 5-LOX (Homo sapiens, UniProt P09917); assay: LOX inhibitory assay; type: biochemical
T1 sequence (P09917 1-674): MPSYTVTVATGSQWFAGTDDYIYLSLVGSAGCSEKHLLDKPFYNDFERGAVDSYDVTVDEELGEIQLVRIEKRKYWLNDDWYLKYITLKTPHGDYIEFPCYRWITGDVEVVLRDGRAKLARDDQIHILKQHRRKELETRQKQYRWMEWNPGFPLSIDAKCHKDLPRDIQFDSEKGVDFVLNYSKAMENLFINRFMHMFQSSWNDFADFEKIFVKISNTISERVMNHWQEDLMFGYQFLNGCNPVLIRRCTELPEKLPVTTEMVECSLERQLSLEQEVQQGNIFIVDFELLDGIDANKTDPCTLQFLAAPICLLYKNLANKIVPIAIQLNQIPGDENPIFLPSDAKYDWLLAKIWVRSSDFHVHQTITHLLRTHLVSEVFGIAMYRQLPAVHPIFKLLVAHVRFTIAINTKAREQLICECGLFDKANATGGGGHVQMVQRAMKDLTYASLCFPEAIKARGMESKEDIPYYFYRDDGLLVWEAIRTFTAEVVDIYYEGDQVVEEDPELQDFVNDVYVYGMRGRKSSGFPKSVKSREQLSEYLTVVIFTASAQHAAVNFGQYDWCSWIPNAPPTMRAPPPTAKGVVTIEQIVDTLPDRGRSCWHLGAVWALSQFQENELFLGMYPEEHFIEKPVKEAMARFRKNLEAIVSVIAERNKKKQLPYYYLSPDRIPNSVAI
Procedure: The assay was performed according to previously reported procedure. […] Enzyme 5-LOX and DCFDA were incubated for 5 min. After the addition of the test compound, it was further incubated for 10 min. By the addition of substrate arachadonic acid and ATP, the reaction was initiated.

COX-2 enzyme = target: T2, COX-2 enzyme (Homo sapiens, UniProt P35354); assay: COX-2 inhibitory assay; type: biochemical
T2 construct: purchased Sigma Aldrich
T2 sequence (P35354 18-604): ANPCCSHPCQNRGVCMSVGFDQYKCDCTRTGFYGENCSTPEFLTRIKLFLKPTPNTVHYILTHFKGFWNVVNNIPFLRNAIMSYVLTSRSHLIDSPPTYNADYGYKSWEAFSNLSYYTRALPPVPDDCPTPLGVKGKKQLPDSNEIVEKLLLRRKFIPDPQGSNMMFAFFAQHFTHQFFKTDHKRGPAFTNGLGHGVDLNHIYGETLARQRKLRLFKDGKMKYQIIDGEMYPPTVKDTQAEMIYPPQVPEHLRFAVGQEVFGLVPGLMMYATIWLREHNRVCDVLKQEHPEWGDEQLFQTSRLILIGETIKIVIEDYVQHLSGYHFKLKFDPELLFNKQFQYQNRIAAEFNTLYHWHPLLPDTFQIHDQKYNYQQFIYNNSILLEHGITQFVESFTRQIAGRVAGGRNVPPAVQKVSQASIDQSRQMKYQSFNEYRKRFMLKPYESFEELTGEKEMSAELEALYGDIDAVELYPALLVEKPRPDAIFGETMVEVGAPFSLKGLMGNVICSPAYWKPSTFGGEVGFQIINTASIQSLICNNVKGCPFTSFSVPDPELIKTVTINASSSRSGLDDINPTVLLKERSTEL
Procedure: COX-2 inhibition was measured spectrophotometrically at 550 nm after the formation of oxidized form of tetramethlenephenylenediamine (TMPD). This assay was conducted according to previously reported procedure. […] The reaction contained 10 μL COX-2 enzymes (100 μM in diluted in DMSO), 10 μL haem of 2.2 mM diluted in DMSO, tris buffers (pH. 8, 100 μl) and drug samples according to the above stated procedure. The reaction was started by the addition of freshly prepared TMPD and methanolic arachidonic acid (AA). Celecoxib is used as a reference drug in this assay. After 5 min of incubation at 25–28C, the absorbance was measured at 550 nm and inhibition was calculated.

[3] = test system: acetic acid induced writhing; assay: Acetic acid induced writhing test; type: in vivo; conditions: mice
Procedure: The animals were divided into various groups I-XVI consisting of 8 experimental animals for control, sample compounds (WE-1 to WE-7) and standard. Group I: Control, Group II-XV: WE-1 to WE-7 (sample compounds) at dose of 10 mg/kg and 20 mg/kg and Group XVI: Standard. The control (Group I) was given normal saline. Group II-XV received 10 mg/kg and 20 mg/kg of test sample (WE-1 to WE-7). […] The writhing test, following a previously established method, was conducted to assess the analgesic potential of the aurone derivatives. The mice were orally administered samples compounds (WE-1 to WE-7)and standard (Diclofenac sodium 10 mg/kg) 1 h before intraperitoneal administration 10 ml/kg of 1 % acetic acid. Five minutes after the acetic acid administration, the numbers of writhing episodes were counted for 10 min, and the percentage of inhibition was subsequently calculated.

[4] = test system: formalin induced paw licking; assay: Formalin induced paw licking test; type: in vivo; conditions: late phase, mice
Procedure: The animals were divided into various groups I-XVI consisting of 8 experimental animals for control, sample compounds (WE-1 to WE-7) and standard. Group I: Control, Group II-XV: WE-1 to WE-7 (sample compounds) at dose of 10 mg/kg and 20 mg/kg and Group XVI: Standard. The control (Group I) was given normal saline. Group II-XV received 10 mg/kg and 20 mg/kg of test sample (WE-1 to WE-7). […] The acute peripheral and centrally mediated analgesic activity of aurone derivatives was evaluated using the formalin-induced pain method, as described. Samples compounds (WE-1 to WE-7) and a standard (Indomethacin 10 mg) were orally administered 30 min prior to 20 μl of 1 % formalin injection (prepared in 0.9 % saline) in right hind paw of the mice and immediately placed in a clear box to observe the animal's reaction. Paw licking or biting within 0–5 min indicated Phase 1, while animal reactions observed between 15 and 30 min indicated Phase 2. The number of paw licking or biting events was compared to the control group, and the percentage of inhibition was calculated.

[5] = Table 2, read-out: LOX (IC50 μM)
[6] = as repeated in Table 4, read-out: Human LOX (IC50 μM)

Structure (SMILES) | Latency response 30 min ([2]; 10 mg/kg + Naloxone 2 mg/kg) | Latency response 60 min ([2]; 10 mg/kg + Naloxone 2 mg/kg) | Latency response 120 min ([2]; 10 mg/kg + Naloxone 2 mg/kg) | Latency response 90 min ([2]; 10 mg/kg + Naloxone 2 mg/kg) | IC50 (5-LOX; [5]) | IC50 (5-LOX; [6]) | IC50 (COX-2 enzyme; Table 2) | IC50 (COX-2 enzyme; as repeated in Table 4) | percentage inhibition of paw licking, Phase II ([4]; 20 mg/kg oral) | Latency response 30 min ([2]; 20 mg/kg + Naloxone 2 mg/kg) | Latency response 60 min ([2]; 20 mg/kg + Naloxone 2 mg/kg) | Latency response 120 min ([2]; 20 mg/kg + Naloxone 2 mg/kg) | Latency response 90 min ([2]; 20 mg/kg + Naloxone 2 mg/kg) | other results
CN1CC[C@]23c4c5ccc(O)c4O[C@H]2[C@@H](O)C=C[C@H]3[C@H]1C5 [Morphine, reference compound] |  |  |  |  |  |  |  |  |  |  |  |  |  | percentage inhibition of pain, tail immersion ([1]; 2 mg/kg oral): 85.42%
COc1cccc(C2(O)CCCCC2CN(C)C)c1 (stereo not shown) [Tramadol, reference compound] | 3.53 ± 0.44 | 4.60 ± 0.59 | 3.48 ± 0.44 | 3.70 ± 0.48 |  |  |  |  |  |  |  |  |  | tail flicking latency ([1]; 10 mg/kg, after 90 min, without Naloxone): 17.74 ± 1.33
O=C1C(=Cc2ccccc2)Oc2ccccc21 [WE-1] |  |  |  |  | 1.45 µM | 1.45 µM | 1.27 µM | 1.27 µM |  |  |  |  |  | 
O=C1C(=Cc2ccc(Cl)cc2)Oc2ccccc21 [WE-2] | 3.61 ± 0.41 | 4.11 ± 0.40 | 3.19 ± 0.32 | 4.03 ± 0.41 | 0.86 µM | 0.86 µM | 0.82 µM | 0.82 µM | over 60% | 3.70 ± 0.39 | 4.30 ± 0.51 | 3.80 ± 0.55 | 4.59 ± 0.60 | percent analgesic effect (inhibition of writhing) ([3]; 10 mg/kg oral): 63.44%; percent analgesic effect (inhibition of writhing) ([3]; 20 mg/kg oral): 64.94%
COc1ccc(C=C2Oc3ccccc3C2=O)cc1 [WE-3] | 3.66 ± 0.41 | 4.60 ± 0.49 | 4.01 ± 0.61 | 4.71 ± 0.66 | 0.52 µM | 0.52 µM | 0.47 µM | 0.47 µM | over 60% | 3.35 ± 0.49 | 4.76 ± 0.51 | 4.15 ± 0.56 | 5.14 ± 0.61 | percentage inhibition of pain, tail immersion ([1]; 20 mg/kg oral, at interval of highest effect): 71.36%
O=C(O)c1ccc(C=C2Oc3ccccc3C2=O)cc1 [WE-5] |  |  |  |  | 1.12 µM | 1.12 µM | 1.21 µM | 1.21 µM |  |  |  |  |  | 
O=Cc1ccc(C=C2Oc3ccccc3C2=O)cc1 [WE-6] |  |  |  |  | 1.17 µM | 1.17 µM | 1.13 µM | 1.13 µM |  |  |  |  |  | 
O=C1C(=Cc2ccc(F)cc2)Oc2ccccc21 [WE-7] | 3.48 ± 0.46 | 4.11 ± 0.48 | 3.40 ± 0.60 | 4.11 ± 0.40 | 0.74 µM | 0.74 µM | 0.63 µM | 0.63 µM | over 60% | 3.50 ± 0.67 | 4.35 ± 0.61 | 3.51 ± 0.66 | 5.01 ± 0.60 | percent analgesic effect (inhibition of writhing) ([3]; 20 mg/kg oral): more than 60%
O=C(O)Cc1ccccc1Nc1c(Cl)cccc1Cl [diclofenac sodium, Diclofenac Sodium, reference compound] |  |  |  |  |  |  |  |  |  |  |  |  |  | percent analgesic effect (inhibition of writhing) ([3]; 10 mg/kg oral): 84.90%; number of writhing ([3]; 10 mg/kg oral, mean ± SEM, control 61.22 ± 3.90): 9.24 ± 1.51
COc1ccc2c(c1)c(CC(=O)O)c(C)n2C(=O)c1ccc(Cl)cc1 [indomethacin, Indomethacin, reference compound] |  |  |  |  |  |  |  |  |  |  |  |  |  | percentage inhibition of paw licking, Phase II ([4]; 10 mg/kg oral): 81.85%
